Reference: ChEMBL document CHEMBL3102819, “Morpholylureas are a new class of potent and selective inhibitors of the type 5 17-β-hydroxysteroid dehydrogenase (AKR1C3)” (Bioorg Med Chem, 2014)
Where a chain is given by its changes, count along the chain named.

Experiments:
[1] = molecular target: T1, Aldo-keto reductase family 1 member C2 (Homo sapiens, UniProt P52895); experiment: Inhibition of recombinant AKR1C2 (unknown origin) after 1 hr by competitive fluorescence assay
T1 sequence (P52895 whole entry): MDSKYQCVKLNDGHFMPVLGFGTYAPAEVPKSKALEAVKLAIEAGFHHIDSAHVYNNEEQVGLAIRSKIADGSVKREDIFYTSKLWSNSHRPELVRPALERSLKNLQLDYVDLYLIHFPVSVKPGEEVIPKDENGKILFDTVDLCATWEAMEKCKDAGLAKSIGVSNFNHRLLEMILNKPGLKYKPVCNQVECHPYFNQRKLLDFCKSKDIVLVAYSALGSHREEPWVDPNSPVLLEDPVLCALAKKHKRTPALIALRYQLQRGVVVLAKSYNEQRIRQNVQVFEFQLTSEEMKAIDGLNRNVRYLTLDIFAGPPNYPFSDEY

[2] = molecular target: T2, Aldo-keto reductase family 1 member C1 (Homo sapiens, UniProt Q04828); experiment: Inhibition of recombinant AKR1C1 (unknown origin) after 1 hr by competitive fluorescence assay
T2 sequence (Q04828 whole entry): T1 sequence (P52895 whole entry) with V38T, H47R, V54L, S87C, M151V, H170R, L172Q

[3] = molecular target: T3, Aldo-keto reductase family 1 member C4 (Homo sapiens, UniProt P17516); experiment: Inhibition of recombinant AKR1C4 (unknown origin) after 1 hr by competitive fluorescence assay
T3 sequence (P17516 whole entry): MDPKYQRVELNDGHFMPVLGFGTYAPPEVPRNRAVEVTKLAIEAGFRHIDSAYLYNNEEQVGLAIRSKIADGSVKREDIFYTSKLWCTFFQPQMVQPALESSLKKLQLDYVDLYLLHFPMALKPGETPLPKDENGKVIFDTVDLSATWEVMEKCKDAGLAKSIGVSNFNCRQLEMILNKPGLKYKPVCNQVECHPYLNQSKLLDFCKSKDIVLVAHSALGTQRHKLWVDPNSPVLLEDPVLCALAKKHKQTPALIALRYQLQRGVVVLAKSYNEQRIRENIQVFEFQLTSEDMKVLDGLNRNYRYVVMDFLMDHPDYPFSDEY

[4] = molecular target: T4, Aldo-keto reductase family 1 member C3 (Homo sapiens, UniProt P42330); experiment: Inhibition of recombinant AKR1C3 (unknown origin) after 1 hr by competitive fluorescence assay
T4 sequence (P42330 whole entry): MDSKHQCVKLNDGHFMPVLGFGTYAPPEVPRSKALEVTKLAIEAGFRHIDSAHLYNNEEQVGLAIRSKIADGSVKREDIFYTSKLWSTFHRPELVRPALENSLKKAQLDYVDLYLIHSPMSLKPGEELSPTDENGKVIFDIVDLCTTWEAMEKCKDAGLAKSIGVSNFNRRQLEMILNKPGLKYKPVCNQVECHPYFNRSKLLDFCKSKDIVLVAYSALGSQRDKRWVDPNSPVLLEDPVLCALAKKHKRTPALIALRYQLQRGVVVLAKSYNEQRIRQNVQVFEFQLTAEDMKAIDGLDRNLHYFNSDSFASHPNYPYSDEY

[5] = molecular target: T4, Aldo-keto reductase family 1 member C3; experiment: Inhibition of AKR1C3 (unknown origin) expressed in human HCT116 cells assessed as formation of PR-104H from PR-104A preincubated for 2 hrs; type: cell-based, HCT-116

## O=C(N1CCOCC1)N1CCN(c2ccc(F)cc2)CC1
[1]
  IC50: > 30 µM
[2]
  IC50: > 30 µM
[3]
  IC50: > 30 µM
[4]
  IC50: 0.5 µM

## O=C(N1CCOCC1)N1CCN(c2ccccc2)CC1
[1]
  IC50: > 30 µM
[2]
  IC50: > 30 µM
[3]
  IC50: > 30 µM
[4]
  IC50: 6.1 µM

## O=C(NC1CCCCC1)N1CCN(c2ccc(Cl)cc2)CC1
[4]
  IC50: > 30 µM

## O=C(N1CCCCC1)N1CCN(c2ccc(Cl)cc2)CC1
[1]
  IC50: > 30 µM
[2]
  IC50: > 30 µM
[3]
  IC50: > 30 µM
[4]
  IC50: 3.8 µM

## O=C(c1ccccc1)N1CCN(c2ccc(Cl)cc2)CC1
[4]
  IC50: > 30 µM

## COc1ccccc1N1CCN(C(=O)N2CCOCC2)CC1
[4]
  IC50: 20.3 µM

## CS(=O)(=O)Nc1ccc(N2CCN(C(=O)N3CCOCC3)CC2)cc1
[4]
  IC50: > 30 µM

## CN1CCN(C(=O)N2CCN(c3ccc(Cl)cc3)CC2)CC1
[4]
  IC50: > 30 µM

## O=C(N1CCN(CCO)CC1)N1CCN(c2ccc(Cl)cc2)CC1
[4]
  IC50: > 30 µM

## O=C(O)C1CCN(C(=O)N2CCN(c3ccc(Cl)cc3)CC2)CC1
[4]
  IC50: 21.9 µM

## O=C(CO)N1CCN(C(=O)N2CCN(c3ccc(Cl)cc3)CC2)CC1
[1]
  IC50: > 30 µM
[2]
  IC50: > 30 µM
[5]
  IC50: 0.059 µM
[3]
  IC50: > 30 µM
[4]
  IC50: 0.46 µM

## O=C(N1CCN(c2ccc(Cl)cc2)CC1)N1CCc2ccccc2C1
[1]
  IC50: > 30 µM
[2]
  IC50: > 30 µM
[5]
  IC50: 0.39 µM
[3]
  IC50: > 30 µM
[4]
  IC50: 0.35 µM

## O=S(=O)(N1CCOCC1)N1CCN(c2ccc(Cl)cc2)CC1
[4]
  IC50: > 30 µM

## S=C(N1CCOCC1)N1CCN(c2ccc(Cl)cc2)CC1
[4]
  IC50: > 30 µM

## O=C(N1CCOCC1)N1CCCN(c2ccc(Cl)cc2)CC1
[4]
  IC50: 30 µM

## O=C(N1CCOCC1)N1CC2CC1CN2c1ccc(Cl)cc1 (stereo not given)
[1]
  IC50: > 30 µM
[2]
  IC50: > 30 µM
[3]
  IC50: > 30 µM
[4]
  IC50: 3.7 µM

## CC(=O)Nc1ccc(N2CCN(C(=O)N3CCOCC3)CC2)cc1
[4]
  IC50: > 30 µM

## O=C(N1CCOCC1)N1CCN(c2ccc(Cl)cc2Cl)CC1
[1]
  IC50: > 30 µM
[2]
  IC50: > 30 µM
[5]
  IC50: 0.003 µM
[3]
  IC50: > 30 µM
[4]
  IC50: 0.025 µM

## Cc1cc(Cl)ccc1N1CCN(C(=O)N2CCOCC2)CC1
[1]
  IC50: > 30 µM
[2]
  IC50: > 30 µM
[5]
  IC50: 0.013 µM
[3]
  IC50: > 30 µM
[4]
  IC50: 0.11 µM

## O=C(N1CCOCC1)N1CCN(c2ccc(Cl)cc2CO)CC1
[1]
  IC50: > 30 µM
[2]
  IC50: > 30 µM
[5]
  IC50: 0.013 µM
[3]
  IC50: > 30 µM
[4]
  IC50: 0.16 µM

## O=C(N1CCOCC1)N1CCN(c2ccc(Cl)nc2)CC1
[1]
  IC50: > 30 µM
[2]
  IC50: > 30 µM
[3]
  IC50: > 30 µM
[4]
  IC50: 0.53 µM

## O=C(N1CCOCC1)N1CCN(c2ccc(Br)cn2)CC1
[1]
  IC50: > 30 µM
[2]
  IC50: > 30 µM
[5]
  IC50: 0.031 µM
[3]
  IC50: > 30 µM
[4]
  IC50: 0.1 µM

## O=C(N1CCOCC1)N1CCN(Cc2ccc(Cl)cc2)CC1
[1]
  IC50: > 30 µM
[2]
  IC50: > 30 µM
[3]
  IC50: > 30 µM
[4]
  IC50: 0.35 µM

## O=C(c1ccc(Cl)cc1)N1CCN(C(=O)N2CCOCC2)CC1
[1]
  IC50: > 30 µM
[2]
  IC50: > 30 µM
[3]
  IC50: > 30 µM
[4]
  IC50: 0.48 µM

## O=C(C1CCOCC1)N1CCN(c2ccc(Cl)cc2)CC1
[4]
  IC50: > 30 µM

## O=C(C1CCCCC1)N1CCN(c2ccc(Cl)cc2)CC1
[4]
  IC50: > 30 µM

## O=C(Nc1ccccc1)N1CCN(c2ccc(Cl)cc2)CC1
[4]
  IC50: > 30 µM

## O=C(c1ccncc1)N1CCN(c2ccc(Cl)cc2)CC1
[4]
  IC50: 12.6 µM

## O=C(N1CCSCC1)N1CCN(c2ccc(Cl)cc2)CC1
[1]
  IC50: > 30 µM
[2]
  IC50: > 30 µM
[3]
  IC50: > 30 µM
[4]
  IC50: 9.1 µM

## O=C(N1CCN(c2ccc(Cl)cc2)CC1)N1CC[S+]([O-])CC1
[4]
  IC50: > 30 µM

## O=C(N1CCN(c2ccc(Cl)cc2)CC1)N1CCS(=O)(=O)CC1
[4]
  IC50: > 30 µM

## O=C(N1CCOCC1)N1CCN(c2cnc3ccccc3c2)CC1
[1]
  IC50: > 30 µM
[2]
  IC50: > 30 µM
[3]
  IC50: > 30 µM
[4]
  IC50: 2.9 µM

## C#Cc1ccc(N2CCN(C(=O)N3CCOCC3)CC2)cc1
[1]
  IC50: > 30 µM
[2]
  IC50: > 30 µM
[3]
  IC50: > 30 µM
[4]
  IC50: 0.66 µM

## O=C(N1CCOCC1)N1CCN(c2ccc(C(F)(F)F)cc2)CC1
[1]
  IC50: > 30 µM
[2]
  IC50: > 30 µM
[5]
  IC50: 0.022 µM
[3]
  IC50: > 30 µM
[4]
  IC50: 0.068 µM

## O=C(N1CCOCC1)N1CCN(c2ccc(Cl)cc2)CC1
[1]
  IC50: > 30 µM
[2]
  IC50: > 30 µM
[5]
  IC50: 0.018 µM
[3]
  IC50: > 30 µM
[4]
  IC50: 0.11 µM

## O=C(N1CCOCC1)N1CCN(c2ccc(Br)cc2)CC1
[1]
  IC50: > 30 µM
[2]
  IC50: > 30 µM
[5]
  IC50: 0.012 µM
[3]
  IC50: > 30 µM
[4]
  IC50: 0.14 µM

## O=C(N1CCOCC1)N1CCN(c2ccc(I)cc2)CC1
[1]
  IC50: > 30 µM
[2]
  IC50: > 30 µM
[5]
  IC50: 0.01 µM
[3]
  IC50: > 30 µM
[4]
  IC50: 0.067 µM

## COC(=O)c1ccc(N2CCN(C(=O)N3CCOCC3)CC2)cc1
[1]
  IC50: > 30 µM
[2]
  IC50: > 30 µM
[3]
  IC50: > 30 µM
[4]
  IC50: > 30 µM

## O=C(O)c1ccc(N2CCN(C(=O)N3CCOCC3)CC2)cc1
[4]
  IC50: > 30 µM

## NC(=O)c1ccc(N2CCN(C(=O)N3CCOCC3)CC2)cc1
[4]
  IC50: > 30 µM

## CNC(=O)c1ccc(N2CCN(C(=O)N3CCOCC3)CC2)cc1
[4]
  IC50: > 30 µM

## CN(C)C(=O)c1ccc(N2CCN(C(=O)N3CCOCC3)CC2)cc1
[4]
  IC50: > 30 µM

## CS(=O)(=O)c1ccc(N2CCN(C(=O)N3CCOCC3)CC2)cc1
[1]
  IC50: > 30 µM
[2]
  IC50: > 30 µM
[3]
  IC50: > 30 µM
[4]
  IC50: 5.52 µM

## O=C(N1CCOCC1)N1CCN(c2ccc([N+](=O)[O-])cc2)CC1
[1]
  IC50: > 30 µM
[2]
  IC50: > 30 µM
[3]
  IC50: > 30 µM
[4]
  IC50: 0.57 µM

## Cc1ccccc1N1CCN(C(=O)N2CCOCC2)CC1
[4]
  IC50: 12.1 µM

## O=C(N1CCOCC1)N1CCN(c2ccccc2Cl)CC1
[1]
  IC50: > 30 µM
[2]
  IC50: > 30 µM
[3]
  IC50: > 30 µM
[4]
  IC50: 2.3 µM

## O=C(N1CCOCC1)N1CCN(c2ccccc2C(F)(F)F)CC1
[1]
  IC50: > 30 µM
[2]
  IC50: > 30 µM
[3]
  IC50: > 30 µM
[4]
  IC50: 0.7 µM

## O=C(N1CCOCC1)N1CCN(c2cccc(Cl)c2)CC1
[1]
  IC50: > 30 µM
[2]
  IC50: > 30 µM
[3]
  IC50: > 30 µM
[4]
  IC50: 5.3 µM

## NC(=O)c1cccc(N2CCN(C(=O)N3CCOCC3)CC2)c1
[4]
  IC50: > 30 µM

## Cc1ccc(N2CCN(C(=O)N3CCOCC3)CC2)cc1
[1]
  IC50: > 30 µM
[2]
  IC50: > 30 µM
[3]
  IC50: > 30 µM
[4]
  IC50: 0.36 µM

## COc1ccc(N2CCN(C(=O)N3CCOCC3)CC2)cc1
[1]
  IC50: > 30 µM
[2]
  IC50: > 30 µM
[3]
  IC50: > 30 µM
[4]
  IC50: 0.35 µM

## O=C(N1CCOCC1)N1CCN(c2ccc(-c3ccccc3)cc2)CC1
[4]
  IC50: > 30 µM

## O=C(N1CCOCC1)N1CCN(c2ccc3ccccc3c2)CC1
[1]
  IC50: > 30 µM
[2]
  IC50: > 30 µM
[3]
  IC50: > 30 µM
[4]
  IC50: 4.9 µM
